The values that follow are results of earlier work, collected in US20230149379A1, “COMBINATION THERAPY FOR ACUTE MYELOID LEUKEMIA” (Celgene Corporation, priority 2020, published 2023).

One data set deals with R/R AML. The settings on record: stepwise dosing.
A further data set has as its system AML at relapse. The note with it: administered alone.

For `CC1(C)CCC(CN2CCN(c3ccc(C(=O)NS(=O)(=O)c4ccc(NCC5CCOCC5)c([N+](=O)[O-])c4)c(Oc4cnc5[nH]ccc5c4)c3)CC2)=C(c2ccc(Cl)cc2)C1` [Venetoclax, 4-[4-[[2-(4-chlorophenyl)-4,4-dimethylcyclohexen-1-yl]methyl]piperazin-1-yl]-N-[3-nitro-4-(oxanylmethylamino)phenyl]sulfonyl-2-(1H-pyrrolo[2,3-b]pyridin-5-yloxy)benzamide], the tumor lysis syndrome result in the data set with R/R AML was “did not occur”.

On to “CT-011: anti-PD-1 antibody, a humanized antibody”, for which the “response in treating AML at relapse” value in the data set with AML at relapse is on record as “failed to show response”.
